The source made the active and inactive calls. For most assays here, no stated cut-off is given here; in the data, actives have a measured IC50 and inactives only a lower limit.

The target in assay [1] is Serine/threonine-protein phosphatase PP1-alpha catalytic subunit (Homo sapiens, UniProt P62136). As to the kind of experiment: PP1 phosphatase inhibitors, dose response, biochemical, fluorescence (AID 2394).
The target in a further assay is T1, Caspase-3 (Homo sapiens, UniProt P42574).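 Further: Dose-response selectivity test against caspase-3 for candidate inhibitors of sentrin-specific proteases (SENPs).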
T1 sequence (P42574 whole entry): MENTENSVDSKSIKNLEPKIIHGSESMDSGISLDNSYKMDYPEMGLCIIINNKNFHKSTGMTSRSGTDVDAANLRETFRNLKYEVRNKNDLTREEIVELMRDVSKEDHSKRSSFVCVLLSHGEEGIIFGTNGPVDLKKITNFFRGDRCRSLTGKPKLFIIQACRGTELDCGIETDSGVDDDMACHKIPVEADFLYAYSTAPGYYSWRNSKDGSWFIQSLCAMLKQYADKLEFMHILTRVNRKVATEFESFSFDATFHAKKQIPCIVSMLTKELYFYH
The format is functional.

Assay [2] has as its target T2, Sentrin-specific protease 7 (Homo sapiens, UniProt Q9BQF6).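 Further: Luminescence-based dose-response confirmation of ultra-high-throughput screening hits, measuring inhibition of SENP7.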
T2 sequence (Q9BQF6 whole entry): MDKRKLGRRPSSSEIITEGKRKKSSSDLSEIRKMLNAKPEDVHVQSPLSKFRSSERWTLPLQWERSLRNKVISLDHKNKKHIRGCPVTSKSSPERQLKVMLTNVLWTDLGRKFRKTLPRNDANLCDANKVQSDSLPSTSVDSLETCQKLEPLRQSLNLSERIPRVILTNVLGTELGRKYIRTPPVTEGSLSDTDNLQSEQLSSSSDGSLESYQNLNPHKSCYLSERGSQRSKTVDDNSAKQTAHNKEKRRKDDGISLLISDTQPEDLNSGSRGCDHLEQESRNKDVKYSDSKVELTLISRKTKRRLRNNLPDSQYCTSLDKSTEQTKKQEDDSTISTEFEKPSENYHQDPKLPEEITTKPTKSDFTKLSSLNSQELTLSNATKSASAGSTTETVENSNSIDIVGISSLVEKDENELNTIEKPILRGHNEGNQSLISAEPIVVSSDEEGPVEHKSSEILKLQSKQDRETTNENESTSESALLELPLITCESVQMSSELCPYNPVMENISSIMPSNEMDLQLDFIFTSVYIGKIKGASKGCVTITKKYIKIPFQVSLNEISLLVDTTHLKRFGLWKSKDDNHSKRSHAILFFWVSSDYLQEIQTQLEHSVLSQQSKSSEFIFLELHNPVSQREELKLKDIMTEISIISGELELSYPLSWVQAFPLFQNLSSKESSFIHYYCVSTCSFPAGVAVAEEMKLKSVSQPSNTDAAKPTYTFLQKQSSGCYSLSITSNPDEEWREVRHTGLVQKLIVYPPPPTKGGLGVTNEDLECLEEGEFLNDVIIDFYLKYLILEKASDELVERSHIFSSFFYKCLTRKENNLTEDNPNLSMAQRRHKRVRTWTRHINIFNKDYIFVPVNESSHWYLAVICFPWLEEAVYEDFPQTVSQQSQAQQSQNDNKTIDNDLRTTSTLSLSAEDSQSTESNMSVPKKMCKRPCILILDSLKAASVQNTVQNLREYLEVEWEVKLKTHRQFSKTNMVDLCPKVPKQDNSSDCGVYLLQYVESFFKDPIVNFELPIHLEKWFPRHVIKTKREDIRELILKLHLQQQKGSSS
Format: functional.

Assay [3] deals with T3, Sentrin-specific protease 6 (Homo sapiens, UniProt Q9GZR1).
T3 sequence (Q9GZR1 whole entry): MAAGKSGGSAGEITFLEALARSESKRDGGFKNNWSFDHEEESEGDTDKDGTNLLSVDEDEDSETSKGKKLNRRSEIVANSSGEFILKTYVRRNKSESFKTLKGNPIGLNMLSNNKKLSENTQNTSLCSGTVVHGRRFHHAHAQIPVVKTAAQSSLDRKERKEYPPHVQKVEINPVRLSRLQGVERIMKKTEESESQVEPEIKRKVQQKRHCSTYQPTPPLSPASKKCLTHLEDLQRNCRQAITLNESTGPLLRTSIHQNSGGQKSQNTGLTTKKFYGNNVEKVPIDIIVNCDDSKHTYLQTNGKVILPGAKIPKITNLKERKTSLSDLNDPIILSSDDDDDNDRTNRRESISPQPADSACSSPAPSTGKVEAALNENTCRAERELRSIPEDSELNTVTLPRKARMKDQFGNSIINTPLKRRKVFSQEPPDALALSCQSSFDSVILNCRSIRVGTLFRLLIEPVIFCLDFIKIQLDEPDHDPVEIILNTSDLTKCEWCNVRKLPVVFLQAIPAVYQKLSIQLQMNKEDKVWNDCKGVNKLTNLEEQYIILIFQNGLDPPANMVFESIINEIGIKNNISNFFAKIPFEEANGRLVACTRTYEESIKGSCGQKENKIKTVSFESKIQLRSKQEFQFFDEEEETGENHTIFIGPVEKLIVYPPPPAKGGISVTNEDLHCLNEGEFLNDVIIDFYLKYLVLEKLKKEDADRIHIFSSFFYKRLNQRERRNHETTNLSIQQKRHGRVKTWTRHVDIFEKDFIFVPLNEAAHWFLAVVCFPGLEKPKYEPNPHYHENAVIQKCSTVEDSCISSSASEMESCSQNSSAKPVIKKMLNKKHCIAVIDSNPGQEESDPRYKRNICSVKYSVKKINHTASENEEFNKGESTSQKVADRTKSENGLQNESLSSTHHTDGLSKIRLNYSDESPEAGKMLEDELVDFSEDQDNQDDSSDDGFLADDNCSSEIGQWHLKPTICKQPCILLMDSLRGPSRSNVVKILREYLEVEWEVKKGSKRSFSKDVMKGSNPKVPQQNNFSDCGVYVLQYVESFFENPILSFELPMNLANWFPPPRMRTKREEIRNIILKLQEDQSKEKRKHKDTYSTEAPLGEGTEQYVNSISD
The format is functional.

For assay [4], the target named is T4, Sentrin-specific protease 8 (Homo sapiens, UniProt Q96LD8).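 Further: luminescence read-out of SENP8 inhibition, dose-response confirmation following an ultra-high-throughput screen.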
T4 sequence (Q96LD8 whole entry): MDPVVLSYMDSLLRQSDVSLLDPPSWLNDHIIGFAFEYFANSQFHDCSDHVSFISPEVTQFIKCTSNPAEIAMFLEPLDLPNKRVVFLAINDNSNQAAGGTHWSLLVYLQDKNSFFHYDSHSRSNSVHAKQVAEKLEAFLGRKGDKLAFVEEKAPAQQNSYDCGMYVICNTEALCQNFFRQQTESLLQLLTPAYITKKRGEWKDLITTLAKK
The format is functional.

Serine/threonine-protein phosphatase PP1-alpha catalytic subunit, sequence (P62136 whole entry): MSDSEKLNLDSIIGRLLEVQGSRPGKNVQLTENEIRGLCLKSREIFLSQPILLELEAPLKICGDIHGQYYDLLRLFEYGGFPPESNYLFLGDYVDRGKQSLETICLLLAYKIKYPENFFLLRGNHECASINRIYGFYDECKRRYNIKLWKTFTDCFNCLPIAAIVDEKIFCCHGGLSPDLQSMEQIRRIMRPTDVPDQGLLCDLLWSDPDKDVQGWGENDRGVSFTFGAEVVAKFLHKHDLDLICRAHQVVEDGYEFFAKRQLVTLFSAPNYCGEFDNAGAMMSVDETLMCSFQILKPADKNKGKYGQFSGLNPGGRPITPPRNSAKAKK

For orientation: IC50 means the concentration that gives 50% inhibition. As for `COc1ccc(/C=N/Nc2cc(N(C)C)nc(N(C)C)n2)cc1`, the IC50 in assay [1] is > 67 µM (not active); at Caspase-3, > 100 µM (inactive); in assay [2] it was 54.5 µM (active); in assay [3] it was 5.62 µM (active); in assay [4], 5.78 µM (active).

With `C/C(=N\c1cccc(C)c1)c1sc2ccccc2c1O`, the IC50 is 17.4 µM (active) on Caspase-3, 4.75 µM (active) in assay [2], 12.7 µM (active) in assay [3] and 10.7 µM (active) in assay [4].

Source of the values: ChEMBL document CHEMBL1201862, “PubChem BioAssay data set” (2004).
